Results: US20250109139A1, “TRICYCLIC COMPOUND, AND PREPARATION METHOD THEREFOR AND USE THEREOF” (SHANGHAITECH UNIVERSITY, priority 2022, published 2025)

Experiments:
[1] = molecular target: T1, 5-hydroxytryptamine 1A (5-HT1A) receptors (Homo sapiens (Human), UniProt P08908); experiment: 5-HT1A receptor β-arrestin2 BRET (recruitment); assay type: cell-based; settings: for Emax: relative to endogenous ligand 5-hydroxytryptamine
Method: At the same time, in order to examine the downstream β-arrestin2 signaling pathway mediated by 5-HT1A receptors, on the first day, a 6 cm culture dish was used for transfection with 500 ng of 5-HT1A receptors containing C-terminal seaweed luciferase (5HT1AR-Rluc), 500 ng of G protein-coupled receptor kinase 2 (GRK2), 2500 ng of β-arrestin2 containing N-terminal green fluorescent protein (GFP2-ARRB2), and 14 μL of PEI. The next day, the confluent cells of a 6 cm culture dish were digested and reseeded into a 96-well plate with 100 μL of culture medium added to each well. On the third day, the drugs were added for test. The 96-well plate was taken out from the cell incubator to decant the culture medium, 40 µL of the substrate coelenterazine 400a (final concentration of 5 μM) was added to each well, and then 20 μL of different drugs were added sequentially from left to right to ensure that the final concentration of the drug decreased gradually from bottom to top, with two replicates per treatment. Finally, the prepared samples were loaded on machine for test. The machine readout value reflected the recruitment of β-arrestin2 to the membrane or the dissociation of G protein trimer. The former indicated the degree of activation of the β-arrestin2 signaling pathway downstream of the 5-HT1 serotonin 1A receptors, and the latter indicated the degree of activation of the G protein signaling pathway downstream of the serotonin 1A receptors.

5-HT2A receptors = 5-HT2A receptors (Homo sapiens (Human), UniProt P28223); experiment: 5-HT2A receptor radioligand competition binding assay ([3H]-ketanserin); settings: for Ki: read-out: Ki
Method: The affinity of the compounds of the present disclosure for 5-HT2A receptors was determined by a radioligand competition binding assay. In the first step, a cell membrane component containing specific 5-HT2A receptor was prepared. A 10 cm dish was used for transfection with […] of 5-HT2A receptors and 40 μL of PEI. After 48 hours, the 10 cm dish was taken out from the cell incubator and the cultured cells had expressed the 5-HT2A receptors. A vacuum pump was used to suck off the culture medium, 3 mL of lysis buffer was added to each culture dish, and the cells were placed in a 4° C. cold room for 10 minutes. After the cells were detached, the cells were transferred to a 15 mL centrifuge tube and centrifuged at 1500 rpm for 5 minutes at 4° C., and the supernatant was discarded. The cell pellet was transferred to a tissue homogenizer, and 3 mL of lysis buffer was added and fully ground until the cells were broken. Then, cell suspension was equally aliquoted into several EP tubes, centrifuged at 12000 rpm for 5 minutes at 4° C., and the supernatant was discarded. The precipitate was the cell membrane component containing the 5-HT2A receptors. […] First, a standard binding buffer was added to the cell membrane component containing the 5-HT2A receptors, and the cell membrane was disrupted and resuspended with an electric tissue homogenizer. 30 μL of membrane protein suspension was added to each well of a 96-well plate. Then, 30 μL of different drugs were added to the 96-well plate sequentially from bottom to top to ensure that the final drug concentrations were 10^−5 M, 10^−6 M, 10^−7 M, 10^−8 M, 10^−9 M, and 0 M, with two replicates per treatment. Next, 30 μL of [^3H]-ketanserin was added to each well of the 96-well plate. The plate was incubated at room temperature in the dark for 2 hours. Detection was conducted. The machine readout value reflected the amount of [^3H]-ketanserin bound on the membrane, and after further data processing, the affinity Ki values of different compounds for the 5-HT2A receptors were obtained.

[2] = tested on: MK801-induced hyperlocomotion in mice; experiment: Open field test, MK801-induced hyperlocomotion (schizophrenia-like model); assay type: in vivo, C57B6 male mice
Method: Experimental method: The experimental animals were C57B6 male mice, n=8 in each group. In this model, C57B6 mice were used as experimental animals. Hyperlocomotion of the mice in open field was induced by acute injection of a NMDA antagonist MK801, and modeled to test the inhibitory effect of different compounds on hyperlocomotion phenotype induced by MK801 All mouse behavior experiments were carried out during the light period. The whole process was recorded by the camera, and locomotive data were tracked and analyzed by behavioral tracking software. The compounds were administered intraperitoneally. Immediately after the injection, the mice entered the open field and their movement trajectories were recorded by the camera. After 30 minutes, the mice received 0.2 mg/kg of MK801 by intraperitoneal injection and returned to the open field immediately after administration, and the movement trajectories were further recorded for 120 minutes. The accumulative travelled distance of the mice was counted in a 5-minute bin. Data statistics were performed using Student-t-test analysis, *p<0.05, **p<0.01, ***p<0.001, ****p<0.0001. The total travelled distance of the mice in the 0-45 minute interval after administration of the compounds of the present disclosure at different doses in combination with MK801 (0.2 mg/kg) is shown in Table 10.

dopamine D2 receptors [3] = molecular target: T2, dopamine D2 receptors (Homo sapiens (Human), UniProt P14416); experiment: Dopamine D2 receptor β-arrestin2 BRET (recruitment); assay type: cell-based; settings: for Emax: relative to endogenous ligand dopamine, read-out: β-arrestin2 BRET Emax % ± SEM; for EC50: unit printed only in Cariprazine cell, read-out: β-arrestin2 BRET EC50
Outline: (§1)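 G-protein assay: cells co-transfected with D2 receptor, Gαi1-Rluc, Gβ3 and Gγ9-GFP (1 μg each); β-arrestin2 assay: D2-Rluc, GRK2 and GFP2-β-arrestin2 co-transfected. Cells were reseeded after one day and tested on day three. Drug dilution series were added in duplicate with coelenterazine 400a (5 μM final), and the BRET signal was read.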

dopamine D2 receptors [4] = molecular target: T2, dopamine D2 receptors; experiment: Dopamine D2 receptor Gαi1 BRET (G protein trimer dissociation); assay type: cell-based; settings: for Emax: relative to endogenous ligand dopamine, read-out: Gαi1 BRET Emax % ± SEM; for EC50: unit printed only in Cariprazine cell, read-out: Gαi1 BRET EC50
Outline: as §1

[5] = molecular target: T1, 5-hydroxytryptamine 1A (5-HT1A) receptors; experiment: 5-HT1A receptor Gαi1 BRET (G protein trimer dissociation); assay type: cell-based; settings: relative to endogenous ligand 5-hydroxytryptamine
[6] = molecular target: T1, 5-hydroxytryptamine 1A (5-HT1A) receptors; experiment: 5-HT1A receptor radioligand competition binding assay ([3H]-LSD); settings: 293T membranes, read-out: Affinity Ki
Method: The affinity of the compounds of the present disclosure for 5-hydroxytryptamine 1A (5-HT1A) receptors was determined by a radioligand competition binding assay.
In the first step, a cell membrane component containing specific 5-HT1A receptors was prepared. […] A vacuum pump was used to suck off the culture medium, 3 mL of lysis buffer was added to each culture dish, and the cells were placed in a 4° C. cold room for 10 minutes. After the cells were detached, the cells were transferred to a 15 mL centrifuge tube and centrifuged at 1500 rpm for 5 minutes at 4° C., and the supernatant was discarded. The cell pellet was transferred to a tissue homogenizer, and 3 mL of lysis buffer was added and fully ground until the cells were broken. Then, cell suspension was equally aliquoted into several EP tubes, centrifuged at 12000 rpm for 5 minutes at 4° C., and the supernatant was discarded. The precipitate was the cell membrane component containing the 5-HT1A receptors.
First, a standard binding buffer was added to the cell membrane component containing the 5-HT1A receptors, and the cell membrane was disrupted and resuspended with an electric tissue homogenizer. 30 μL of membrane protein suspension was added to each well of a 96-well plate. Then, 30 μL of different drugs were added to the 96-well plate sequentially from bottom to top to ensure that the final drug concentrations were 10^−5 M, 10^−6 M, 10^−7 M, 10^−8 M, 10^−9 M, and 0 M, with two replicates per treatment. Next, 30 μL of [^3H]-LSD was added to each well of the 96-well plate. The plate was incubated at room temperature in the dark for 2 hours. Detection was conducted. The machine readout value reflected the amount of [^3H]-LSD bound on the membrane, and after further data processing, the binding affinity Ki values of different compounds for the 5-HT1A receptors were obtained.

dopamine D2 receptors [7] = molecular target: T2, dopamine D2 receptors; experiment: Dopamine D2 receptor radioligand competition binding assay ([3H]-Methylspiperone); settings: [3H]-Methylspiperone 0.3 to 0.5 nM, 293T membranes; read-out: Affinity Ki
Outline: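 Membranes from cells transfected with human D2 receptor, PEI-mediated; competition with [3H]-methylspiperone for 2 h at room temperature in the dark.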

[8] = [3H]-ketanserin, 293T membranes

T2 sequence (P14416 whole entry): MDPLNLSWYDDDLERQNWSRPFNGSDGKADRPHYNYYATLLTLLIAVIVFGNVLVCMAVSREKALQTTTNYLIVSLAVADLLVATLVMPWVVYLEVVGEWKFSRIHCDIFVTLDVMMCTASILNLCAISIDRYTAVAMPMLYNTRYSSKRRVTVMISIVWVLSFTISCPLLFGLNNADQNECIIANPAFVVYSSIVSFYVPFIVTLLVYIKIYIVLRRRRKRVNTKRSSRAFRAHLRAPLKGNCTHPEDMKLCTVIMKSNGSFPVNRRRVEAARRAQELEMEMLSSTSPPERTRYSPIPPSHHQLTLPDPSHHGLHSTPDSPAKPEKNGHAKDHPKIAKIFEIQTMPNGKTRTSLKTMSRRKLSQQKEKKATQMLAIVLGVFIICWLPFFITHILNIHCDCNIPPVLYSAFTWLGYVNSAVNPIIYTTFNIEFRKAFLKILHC
T1 sequence (P08908 whole entry): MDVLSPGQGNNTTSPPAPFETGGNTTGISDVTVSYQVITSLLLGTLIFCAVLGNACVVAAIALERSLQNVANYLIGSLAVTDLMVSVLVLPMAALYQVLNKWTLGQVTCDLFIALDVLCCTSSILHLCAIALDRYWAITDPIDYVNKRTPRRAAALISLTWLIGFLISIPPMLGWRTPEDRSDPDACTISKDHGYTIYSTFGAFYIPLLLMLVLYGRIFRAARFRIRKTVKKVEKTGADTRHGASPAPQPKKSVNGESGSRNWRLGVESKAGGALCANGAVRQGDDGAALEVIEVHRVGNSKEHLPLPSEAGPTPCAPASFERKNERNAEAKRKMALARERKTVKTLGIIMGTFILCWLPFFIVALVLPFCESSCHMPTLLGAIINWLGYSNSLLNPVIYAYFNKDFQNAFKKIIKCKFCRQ
5-HT2A receptors, sequence (P28223 whole entry): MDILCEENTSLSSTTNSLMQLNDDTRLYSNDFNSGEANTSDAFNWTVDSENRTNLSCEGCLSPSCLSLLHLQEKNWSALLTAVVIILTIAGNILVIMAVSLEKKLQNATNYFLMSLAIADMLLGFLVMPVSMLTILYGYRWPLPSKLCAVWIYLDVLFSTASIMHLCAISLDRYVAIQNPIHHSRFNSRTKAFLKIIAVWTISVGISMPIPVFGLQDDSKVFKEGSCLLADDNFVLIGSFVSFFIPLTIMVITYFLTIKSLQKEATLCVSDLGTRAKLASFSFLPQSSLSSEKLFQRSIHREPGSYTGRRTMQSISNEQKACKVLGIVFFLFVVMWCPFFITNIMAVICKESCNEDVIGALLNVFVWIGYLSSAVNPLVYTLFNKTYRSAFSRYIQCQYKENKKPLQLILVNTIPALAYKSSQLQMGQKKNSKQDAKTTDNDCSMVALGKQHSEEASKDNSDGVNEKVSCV

| Emax (dopamine D2 receptors [3]) | EC50 (dopamine D2 receptors [3]) | Emax [5] | Ki [6] | Emax [1] | Compound | other results |
| --- | --- | --- | --- | --- | --- | --- |
| – | – | – | – | – | CN(C)C(=O)N[C@H]1CC[C@H](CCN2CCN(c3cccc(Cl)c3Cl)CC2)CC1 [Cariprazine, reference compound] | β-arrestin2 BRET EC50 [1]: Inactive |
| – | – | – | – | – | COc1cccc2c3c(oc12)CN(CCCCOc1ccc2c(c1)NC(=O)CC2)CC3 [I-A2, 7-(4-(8-methoxy-3,4-dihydrobenzofuro[2,3-c]pyridin-2(1H)-yl)butoxy)-3,4-dihydroquinolin-2(1H)-one] | affinity for 5-HT2A receptors (in words) (5-HT2A receptors): very weak affinity; pKi ± SEM (5-HT2A receptors; [8]): (5.95 ± 0.05); Ki (5-HT2A receptors; [8]): 1110 nM; Distance travelled in 45 minutes ([2]; MK801 0.2 mg/kg + compound 1 mg/kg i.p.): 8795.03 cm; Distance travelled in 45 minutes ([2]; MK801 0.2 mg/kg + compound 4 mg/kg i.p.): 6152.62 cm; Distance travelled in 45 minutes ([2]; MK801 0.2 mg/kg + compound 16 mg/kg i.p.): 3028.99 cm |
| 101% | 55 nM | 64.1% | 0.64 nM | – | CCOc1cccc2c3c(oc12)CN(CCc1ccc2ccc(=O)[nH]c2c1)CC3 [I-A27, 7-(2-(8-ethoxy-3,4-dihydrobenzofuro[2,3-c]pyridin-2(1H)-yl)ethyl)quinolin-2(1H)-one] | Emax (dopamine D2 receptors [4]): 57%; EC50 (dopamine D2 receptors [4]): 45.2 nM |
| 18% | 56.7 nM | 96.7% | – | 25.2% | CCOc1cccc2c3c(oc12)CN(CCNC(=O)C1CCCC1)CC3 [I-A33, N-(2-(8-ethoxy-3,4-dihydrobenzofuro[2,3-c]pyridin-2(1H)-yl)ethyl)cyclopentanecarboxamide] | – |
| 17% | 3.17 nM | 102% | – | 39.8% | CCOc1cccc2c3c(oc12)CN(CCNC(=O)c1ccccc1)CC3 [I-A35, N-(2-(8-ethoxy-3,4-dihydrobenzofuro[2,3-c]pyridin-2(1H)-yl)ethyl)benzamide] | – |
| 12% | 0.75 nM | 100% | – | 38.7% | CCOc1cccc2c3c(oc12)CN(CCNC(=O)c1cccs1)CC3 [I-A36, N-(2-(8-ethoxy-3,4-dihydrobenzofuro[2,3-c]pyridin-2(1H)-yl)ethyl)thiophene-2-carboxamide] | – |
| – | – | 82.2% | – | 20.6% | CCOc1cccc2c3c(oc12)CN(CCN1CCc2nn(C)c(C)c2C1=O)CC3 [I-A39, 5-(2-(8-ethoxy-3,4-dihydrobenzofuro[2,3-c]pyridin-2(1H)-yl)ethyl)-2,3-dimethyl-2,5,6,7-tetrahydro-4H-pyrazolo[4,3-c]pyridin-4-one] | – |
| – | – | 101% | – | 28.9% | CCOc1cccc2c3c(oc12)CN(CCN1CCCc2ccccc2C1=O)CC3 [I-A40, 2-(2-(8-ethoxy-3,4-dihydrobenzofuro[2,3-c]pyridin-2(1H)-yl)ethyl)-2,3,4,5-tetrahydro-1H-benzo[c]azepin-1-one] | – |
| – | – | 98.8% | 0.78 nM | 14.3% | CCOc1cccc2c3c(oc12)CN(CCN1CCCc2c(ccn2C)C1=O)CC3 [I-A41, 5-(2-(8-ethoxy-3,4-dihydrobenzofuro[2,3-c]pyridin-2(1H)-yl)ethyl)-1-methyl-5,6,7,8-tetrahydropyrrolo[3,2-c]azepin-4(1H)-one] | – |
| – | – | 101% | 0.42 nM | 21% | CCOc1cccc2c3c(oc12)CN(CCN1CCCc2c(cnn2C)C1=O)CC3 [I-A42, 5-(2-(8-ethoxy-3,4-dihydrobenzofuro[2,3-c]pyridin-2(1H)-yl)ethyl)-1-methyl-5,6,7,8-tetrahydropyrazolo[4,3-c]azepin-4(1H)-one] | – |
| 21% | 48.8 nM | 84.3% | 0.015 nM | – | CCOc1cccc2c3c(oc12)CN(CCCCn1ncc(=O)n(C)c1=O)CC3 [I-A43, 2-(4-(8-ethoxy-3,4-dihydrobenzofuro[2,3-c]pyridin-2(1H)-yl)butyl)-4-methyl-1,2,4-triazine-3,5(2H,4H)-dione] | – |
| – | – | 81% | – | 79% | COc1cccc2c1cc1n2CCN(CCNC(=O)C2CCOCC2)C1 [I-C8, N-(2-(9-methoxy-3,4-dihydropyrazino[1,2-a]indol-2(1H)-yl)ethyl)tetrahydro-2H-pyran-4-carboxamide] | Ki (dopamine D2 receptors [7]): 239 nM |

| Compound | Emax (dopamine D2 receptors [3]) | EC50 (dopamine D2 receptors [3]) | Emax [5] | Ki [6] | Emax [1] | other results |
| --- | --- | --- | --- | --- | --- | --- |
| CCOc1cccc2c3c(oc12)CN(CCCCOc1ccc2ccc(=O)[nH]c2n1)CC3 [I-A29, 7-(4-(8-ethoxy-3,4-dihydrobenzofuro[2,3-c]pyridin-2(1H)-yl)butoxy)-1,8-naphthyridin-2(1H)-one] | 47% | 10.1 nM | 90.3% | – | 8.46% | affinity for 5-HT2A receptors (in words) (5-HT2A receptors): very weak affinity; Ki (5-HT2A receptors; [8]): 5520 nM; Emax (dopamine D2 receptors [4]): 40%; EC50 (dopamine D2 receptors [4]): 33.1 nM; Ki (dopamine D2 receptors [7]): 27.7 nM |
